Experimental findings from US9878986B2, “Compounds for selective histone deacetylase inhibitors, and pharmaceutical composition comprising the same” (CHONG KUN DANG PHARMACEUTICAL CORP., priority 2013, dated 2018) are described below.

Bounds are passed on as bounds.

Test [1] addresses T1, HDAC 6 (Homo sapiens, UniProt Q9UBN7).
T1 sequence (Q9UBN7 1-1215): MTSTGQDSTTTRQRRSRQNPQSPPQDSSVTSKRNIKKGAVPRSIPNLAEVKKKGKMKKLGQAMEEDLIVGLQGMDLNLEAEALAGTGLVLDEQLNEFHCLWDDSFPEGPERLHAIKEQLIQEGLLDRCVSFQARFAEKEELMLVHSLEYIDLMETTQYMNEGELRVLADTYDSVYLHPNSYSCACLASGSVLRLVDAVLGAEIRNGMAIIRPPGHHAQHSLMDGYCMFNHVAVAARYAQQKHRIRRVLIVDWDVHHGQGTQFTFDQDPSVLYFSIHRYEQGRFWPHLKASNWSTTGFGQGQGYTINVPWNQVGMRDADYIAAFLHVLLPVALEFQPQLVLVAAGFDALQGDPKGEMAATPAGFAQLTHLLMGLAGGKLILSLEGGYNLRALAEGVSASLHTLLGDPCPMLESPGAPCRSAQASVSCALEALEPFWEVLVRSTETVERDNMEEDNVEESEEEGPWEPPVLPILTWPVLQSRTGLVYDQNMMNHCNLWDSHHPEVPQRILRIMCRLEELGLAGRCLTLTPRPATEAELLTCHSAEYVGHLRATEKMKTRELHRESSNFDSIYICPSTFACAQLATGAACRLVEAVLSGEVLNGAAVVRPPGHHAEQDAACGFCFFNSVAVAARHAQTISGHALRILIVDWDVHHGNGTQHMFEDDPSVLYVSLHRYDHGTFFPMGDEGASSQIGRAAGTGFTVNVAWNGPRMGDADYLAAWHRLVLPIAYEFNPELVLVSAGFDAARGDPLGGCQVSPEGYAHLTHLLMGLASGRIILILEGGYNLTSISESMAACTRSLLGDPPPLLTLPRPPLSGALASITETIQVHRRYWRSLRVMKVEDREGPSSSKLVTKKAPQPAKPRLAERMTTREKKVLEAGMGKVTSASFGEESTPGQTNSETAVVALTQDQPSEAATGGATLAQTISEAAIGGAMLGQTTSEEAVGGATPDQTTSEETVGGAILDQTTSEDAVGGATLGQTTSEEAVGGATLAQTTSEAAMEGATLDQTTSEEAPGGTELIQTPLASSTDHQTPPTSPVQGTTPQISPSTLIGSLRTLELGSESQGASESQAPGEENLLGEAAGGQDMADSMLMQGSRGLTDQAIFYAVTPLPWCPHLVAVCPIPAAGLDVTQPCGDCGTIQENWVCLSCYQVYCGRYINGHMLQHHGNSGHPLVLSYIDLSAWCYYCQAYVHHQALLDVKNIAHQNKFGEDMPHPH
Put plainly: Test of HDAC activities, HDAC6 (fluorimetric). In kind it is biochemical. Set-up: purchased Calbiochem 382180. To be noted: samples at 0.1, 1, 10, 100, 1000 nM; 37° C. 60 minutes; fluorescence Ex 390, Em 460; read-out: HDAC inhibitory activities, HDAC6. Put shortly:
(§1)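 HDAC1 tested at 100, 1000 and 10000 nM; recombinant human HDAC6 at 0.1, 1, 10, 100 and 1000 nM. Reaction 60 min at 37° C, then developer for 30 min at 37° C; fluorescence read at Ex 390/Em 460.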

Test [2] has as its target HDAC1 (Homo sapiens, UniProt Q13547). Kind of test: Test of HDAC activities, HDAC1 Fluorimetric Drug Discovery Assay Kit. In kind it is biochemical. More on the design: purchased Enzolifesciences BML-AK511. The conditions noted are these: samples at 100, 1000, 10000 nM; 37° C. 60 minutes; fluorescence Ex 390, Em 460; read-out: HDAC inhibitory activities, HDAC1. In a few lines:
as §1

HDAC1, sequence (Q13547 whole entry): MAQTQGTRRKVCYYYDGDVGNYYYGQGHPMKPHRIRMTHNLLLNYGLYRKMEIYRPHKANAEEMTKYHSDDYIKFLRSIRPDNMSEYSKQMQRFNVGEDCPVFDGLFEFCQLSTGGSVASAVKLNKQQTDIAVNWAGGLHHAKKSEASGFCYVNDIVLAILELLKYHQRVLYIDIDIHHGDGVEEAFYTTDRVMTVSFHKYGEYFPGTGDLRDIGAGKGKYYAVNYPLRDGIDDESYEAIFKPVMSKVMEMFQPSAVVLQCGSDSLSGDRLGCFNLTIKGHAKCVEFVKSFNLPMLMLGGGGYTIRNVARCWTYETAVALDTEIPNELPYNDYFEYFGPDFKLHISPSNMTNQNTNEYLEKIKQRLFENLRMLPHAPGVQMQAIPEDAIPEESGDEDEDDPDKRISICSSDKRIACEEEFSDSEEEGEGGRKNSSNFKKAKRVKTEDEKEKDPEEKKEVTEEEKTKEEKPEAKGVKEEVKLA

With `O=C(NO)c1ccc(CN(C(=O)N2CCOCC2)c2ccc(C(F)(F)F)cc2)c(F)c1` [Compound 577, N-(2-fluoro-4-(hydroxycarbamoyl)benzyl)-N-(4-(trifluoromethyl)phenyl)morpholine-4-carboxamide], the IC50 in test [1] was 0.0012 µM; in test [2], 1 µM.

`O=C(NO)c1ccc(CN(C(=O)N2CC(F)(F)C2)c2ccc(C(F)(F)F)cc2)c(F)c1` [Compound 578, 3,3-difluoro-N-(2-fluoro-4-(hydroxycarbamoyl)benzyl)-N-(4-(trifluoromethyl)phenyl) azetidine-1-carboxamide]: the IC50 in test [1] is 0.0093 µM; in test [2] it was 1.25 µM.

As to `O=C(NO)c1ccc(CN(C(=O)N2CCCOCC2)c2ccc(C(F)(F)F)cc2)cc1` [Compound 580, N-(4-(hydroxycarbamoyl)benzyl)-N-(4-(trifluoromethyl)phenyl)-1,4-oxazepane-4-carboxamide], the values for the IC50 in test [1] and in test [2] were 0.021 µM and 0.667 µM, respectively.

With `O=C(NO)c1ccc(CN(C(=O)N2CCN(CC3(O)CCOCC3)CC2)c2cccc(C(F)(F)F)c2)cc1` [Compound 651, 4-((4-hydroxy-tetrahydro-2H-pyran-4-yl)methyl)-N-(4-(hydroxycarbamoyl)benzyl)-N-(3-(trifluoromethyl)phenyl)piperazine-1-carboxamide], the IC50 in test [1] worked out at 0.0046 µM; in test [2], 0.765 µM.

Take `O=C(NO)c1ccc(CN(C(=O)N2CCN(Cc3ccccc3)CC2)c2cccc(C(F)(F)F)c2)cc1` [Compound 683, 4-benzyl-N-(4-(hydroxycarbamoyl)benzyl)-N-(3-(trifluoromethyl)phenyl)piperazine-1-carboxamide]: the IC50 was determined as 0.0014 µM in test [1] and 0.545 µM in test [2].

For the compound `COc1cccc(N2CCN(C(=O)N(Cc3ccc(C(=O)NO)cc3)c3cccc(C(F)(F)F)c3)CC2)c1` [Compound 684, N-(4-(hydroxycarbamoyl)benzyl)-4-(3-methoxyphenyl)-N-(3-(trifluoromethyl)phenyl)piperazine-1-carboxamide], the IC50 in test [1] came out at 0.019 µM; in test [2] it was 4.98 µM.

Turning to `O=C(NO)c1ccc(CN(C(=O)N2CCN(CC3(F)CCOCC3)CC2)c2cccc(C(F)(F)F)c2)cc1` [Compound 716, 4-((4-fluorotetrahydro-2H-pyran-4-yl)methyl)-N-(4-(hydroxycarbamoyl)benzyl)-N-(3-(trifluoromethyl)phenyl)piperazine-1-carboxamide], the IC50 was 0.0064 µM in test [1] and 0.727 µM in test [2].

As for `O=C(NO)c1ccc(CN(C(=O)N2CCN(c3ccccc3)CC2)c2cccc(C(F)(F)F)c2)cc1` [Compound 717, N-(4-(hydroxycarbamoyl)benzyl)-4-phenyl-N-(3-(trifluoromethyl)phenyl)piperazine-1-carboxamide], the IC50 was determined as 0.024 µM in test [1] and 2.37 µM in test [2].

On to `O=C(NO)c1ccc(CN(C(=O)N2CCN(C(c3ccccc3)c3ccccc3)CC2)c2cccc(C(F)(F)F)c2)cc1` [Compound 718, 4-benzhydryl-N-(4-(hydroxycarbamoyl)benzyl)-N-(3-(trifluoromethyl)phenyl)piperazine-1-carboxamide], for which the IC50 in test [1] was 0.405 µM; in test [2], 8.54 µM.

For `CCN1CCN(C(=O)N(Cc2ccc(C(=O)NO)cc2)c2cccc(CF)c2)CC1` [Compound 765, 4-ethyl-N-(3-(fluoromethyl)phenyl)-N-(4-(hydroxycarbamoyl)benzyl)piperazine-1-carboxamide], the IC50 in test [1] stood at 0.0018 µM; in test [2], 0.433 µM.

With `CC(C)(F)CN1CCN(C(=O)N(Cc2ccc(C(=O)NO)cc2)c2cccc(CF)c2)CC1` [Compound 766, 4-(2-fluoro-2-methylpropyl)-N-(3-(fluoromethyl)phenyl)-N-(4-(hydroxycarbamoyl)benzyl)piperazine-1-carboxamide], the results for the IC50 in test [1] and in test [2] were 0.003 µM and 0.838 µM, respectively.

On to `O=C(NO)c1ccc(CN(C(=O)N2CCOCC2)c2ccccc2OC(F)(F)F)cc1` [Compound 771, N-(4-(hydroxycarbamoyl)benzyl)-N-(2-(trifluoromethoxy)phenyl)morpholine-4-carboxamide], for which the IC50 was 0.0645 µM in test [1] and > 10 µM in test [2].

For the compound `O=C(NO)c1ccc(CN(C(=O)N2CCOCC2)c2ccc(OC(F)(F)F)cc2)cc1` [Compound 772, N-(4-(hydroxycarbamoyl)benzyl)-N-(4-(trifluoromethoxy)phenyl)morpholine-4-carboxamide], the values for the IC50 in test [1] and in test [2] were 0.0025 µM and 0.349 µM, respectively.

Consider `O=C(NO)c1ccc(CN(C(=O)N2CCOCC2)c2cccc(OC(F)(F)F)c2)cc1` [Compound 773, N-(4-(hydroxycarbamoyl)benzyl)-N-(3-(trifluoromethoxy)phenyl)morpholine-4-carboxamide], for which the IC50 in test [1] worked out at 0.0028 µM; in test [2] it was 0.312 µM.

Take `COc1ccc(C(F)(F)F)cc1N(Cc1ccc(C(=O)NO)cc1)C(=O)N1CCOCC1` [Compound 774, N-(4-(hydroxycarbamoyl)benzyl)-N-(2-methoxy-5-(trifluoromethyl)phenyl)morpholine-4-carboxamide]: the IC50 is 0.119 µM in test [1] and 12.3 µM in test [2].

For `O=C(NO)c1ccc(CN(C(=O)N2CCOCC2)c2cc(C(F)(F)F)ccc2Cl)cc1` [Compound 776, N-(2-chloro-5-(trifluoromethyl)phenyl)-N-(4-(hydroxycarbamoyl)benzyl)morpholine-4-carboxamide], the values for the IC50 in test [1] and in test [2] were 0.0315 µM and 1.98 µM, respectively.

As for `O=C(NO)c1ccc(CN(C(=O)N2CCOCC2)c2cccc(C(F)(F)F)n2)cc1` [Compound 778, N-(4-(hydroxycarbamoyl)benzyl)-N-(6-(trifluoromethyl)pyridin-2-yl)morpholine-4-carboxamide], the IC50 in test [1] was 0.011 µM; in test [2] it was 6.43 µM.

For the compound `O=C(NO)c1ccc(CN(C(=O)N2CCOCC2)c2cccc(F)c2F)cc1` [Compound 791, N-(2,3-difluorophenyl)-N-(4-(hydroxycarbamoyl)benzyl)morpholine-4-carboxamide], the IC50 in test [1] was determined as 0.0011 µM; in test [2] it was 0.585 µM.

In the case of `CCN1[C@H](C)CN(C(=O)N(Cc2ccc(C(=O)NO)cc2)c2cccc(C(F)(F)F)c2)C[C@@H]1C` [Compound 797, (3S,5R)-4-ethyl-N-(4-(hydroxycarbamoyl)benzyl)-3,5-dimethyl-N-(3-(trifluoromethyl)phenyl)piperazine-1-carboxamide], the IC50 in test [1] came to 0.002 µM; in test [2], 1.6 µM.

Consider `CC1CN(C(=O)N(Cc2ccc(C(=O)NO)cc2)c2cccc(OC(F)(F)F)c2)CC(C)O1` (centres unmarked) [Compound 800, N-(4-(hydroxycarbamoyl)benzyl)-2,6-dimethyl-N-(3-(trifluoromethoxy)phenyl)morpholine-4-carboxamide], for which the IC50 was 0.078 µM in test [1] and 0.633 µM in test [2].

On to `CC1CN(C(=O)N(Cc2ccc(C(=O)NO)cc2)c2ccccc2OC(F)(F)F)CC(C)O1` (centres unmarked) [Compound 801, N-(4-(hydroxycarbamoyl)benzyl)-2,6-dimethyl-N-(2-(trifluoromethoxy)phenyl)morpholine-4-carboxamide], for which the IC50 turned out to be 0.0597 µM in test [1] and 14.9 µM in test [2].

Consider `C[C@@H]1CN(C(=O)N(Cc2ccc(C(=O)NO)cc2)c2cccc(C(F)(F)F)c2)C[C@H](C)N1Cc1ccccc1` [Compound 802, (3S,5R)-4-benzyl-N-(4-(hydroxycarbamoyl)benzyl)-3,5-dimethyl-N-(3-(trifluoromethyl)phenyl)piperazine-1-carboxamide], for which the IC50 in test [1] was found to be 0.0094 µM; in test [2], 1.6 µM.
